Assay [1] concerns the target p38a/MK2 (Homo sapiens (Human), UniProt P49137+Q16539). The assay can be described thus: biochemical. The following applies: 10-point 1:3 dilution, 10 μM ATP, 2 h incubation. The method, then: (§1) Expression vectors of the recombinant MK2 and PRAK kinases were constructed by cloning of the codon optimized gene sequences of MK2 (Uniprot ID P49137, amino acid fragment F46-H400), or PRAK (Uniprot ID Q81W41, amino acid fragment M1-Q471) into pGEX-4T1 (GE) for over expression of these kinases with N-terminal GST-tag. Protein expression was carried out in E. coli BL21 by growing the hosts in TB medium, induction of protein expression with 0.5 mM IPTG at approximate 0.8 OD600, and incubation of the cultures at 18° C. for 14-20 hours afterwards. The harvested cells were resuspended in […] of Lysis buffer (50 mM Tris-HCl, pH 8.0, 500 mM NaCl, 1 mM DTT, 5% glycerol, and 1 mM PMSF) per gram of wet cell mass and homogenized at 4° C. in a microfluidizer (ATS, Suzhou, China) at 14,000 psi pressure, 3 passes. The cell lysates were clarified by centrifugation and the supernatants containing the GST-fusion proteins were purified by affinity chromatography using GSH-Sepharose (GE) gravity flow columns pre-equilibrated in Buffer A (50 mM Tris-HCl, pH 8.0, 500 mM NaCl, 1 mM DTT, and 5% glycerol). After thorough washing of the columns with Buffer A, the bound GST-proteins were eluted by Buffer B (50 mM Tris, pH 8.0, 500 mM NaCl, 1 mM DTT, 5% glycerol, 10 mM glutathione), followed by size-exclusion purification on Superdex 200 column equilibrated in Buffer A. The purified proteins were concentrated to approximately 1 mg/ml and stored at −80° C.
(§2) This study evaluates the inhibitory potency of invention compound on p38/MK2 pathway vs p38/PRAK pathway. More specially the compound concentration (IC50) was determined that inhibited half of the maximal activation of MK2 or PRAK by p38. MK2 activation study was set up without or with a serial of 10-point 1:3 dilution of invention compound at top dose of 1 or 10 μM, and PRAK activation study was set up without or with a serial of 10-point 1:3 dilution of invention compound at top dose of 300 μM. The MIK2 and PRAK activity were determined by the phosphorylation level of HSP27 peptide conjugated with FITC.

In assay [2] the target is p38a/PRAK (Homo sapiens (Human), UniProt Q16539). Put plainly: biochemical. The following applies: 10-point 1:3 dilution, top dose 300 μM; 10 μM ATP, 2 h incubation; read-out: p38a/PRAK Enzyme pIC50 (converted). The method, then:
as §1, §2

The mark [3] stands for this setting: top dose 1 μM, read-out: p38a/MK2 (1 μM) Enzyme pIC50 (converted).
Where [4] appears, read: top dose 10 μM, read-out: p38a/MK2 (10 μM) Enzyme pIC50 (converted).

Experimental findings from US11685719B2, “Pyridinone MK2 inhibitors and uses thereof” (Xinthera, Inc., priority 2021, dated 2023) are described below.

Like-named read-outs stand apart in the source and are kept apart here.

Chain of p38a/MK2 (Q16539 whole entry, the tested form may be a part): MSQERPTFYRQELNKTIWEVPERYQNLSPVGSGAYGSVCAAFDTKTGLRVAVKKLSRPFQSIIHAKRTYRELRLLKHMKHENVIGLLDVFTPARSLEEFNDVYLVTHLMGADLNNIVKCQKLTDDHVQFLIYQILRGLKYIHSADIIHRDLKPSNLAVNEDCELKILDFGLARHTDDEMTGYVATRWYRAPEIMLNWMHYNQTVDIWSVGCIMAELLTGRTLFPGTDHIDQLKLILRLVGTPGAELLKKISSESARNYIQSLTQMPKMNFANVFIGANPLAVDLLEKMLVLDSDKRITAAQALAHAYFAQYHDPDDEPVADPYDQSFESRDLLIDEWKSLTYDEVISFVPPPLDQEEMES
Chain of p38a/MK2 (P49137 46-400): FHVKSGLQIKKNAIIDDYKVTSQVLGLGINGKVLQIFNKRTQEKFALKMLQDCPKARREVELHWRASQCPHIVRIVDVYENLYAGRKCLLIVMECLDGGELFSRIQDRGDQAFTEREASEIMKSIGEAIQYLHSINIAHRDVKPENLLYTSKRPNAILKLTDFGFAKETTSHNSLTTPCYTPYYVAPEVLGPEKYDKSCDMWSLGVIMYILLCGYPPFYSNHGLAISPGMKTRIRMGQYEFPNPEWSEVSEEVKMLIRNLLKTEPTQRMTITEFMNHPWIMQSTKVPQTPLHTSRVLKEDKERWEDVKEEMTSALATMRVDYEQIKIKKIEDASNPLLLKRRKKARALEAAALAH
Chain of p38a/PRAK (Q16539 whole entry): as the sequence (Q16539 whole entry, the tested form may be a part) above

For the compound `CCOC(=O)C(C)(C)n1nc(-c2cc(-n3c(C)cc(OCc4ncc(F)cc4F)c(Cl)c3=O)c(C)cn2)ccc1=O` (atropisomer, axis not shown) [Example 6, ethyl 2-(3-{3-chloro-4-[(3,5-difluoropyridin-2-yl)methoxy]-5′,6-dimethyl-2-oxo-[1,4′-bipyridin]-2′-yl}-6-oxopyridazin-1-yl)-2-methylpropanoate], the IC50 was 20 nM in assay [1] (setting [3]) and 6310 nM in assay [2].
As for `Cc1cnc(-n2cccc(C(C)(C)O)c2=O)cc1-n1c(C)cc(OCc2ncc(F)cc2F)c(Cl)c1=O` (single isomer, unassigned) [Example 1A, rel-3-chloro-4-[(3,5-difluoropyridin-2-yl)methoxy]-2′-[3-(2-hydroxypropan-2-yl)-2-oxopyridin-1-yl]-5′,6-dimethyl-[1,4′-bipyridin]-2-one], the IC50 in assay [1] (setting [3]) was 2 nM; in assay [1] (setting [4]), 3.16 nM; in assay [2] it was 3160 nM.
In the case of `Cc1cnc(-n2cccc(C(C)(C)O)c2=O)cc1-n1c(C)cc(OCc2ncc(F)cc2F)c(Cl)c1=O` (single isomer, unassigned) [Example 1B, rel-3-chloro-4-[(3,5-difluoropyridin-2-yl)methoxy]-2′-[3-(2-hydroxypropan-2-yl)-2-oxopyridin-1-yl]-5′,6-dimethyl-[1,4′-bipyridin]-2-one], the IC50 in assay [1] (setting [4]) is 398 nM; in assay [2] it was above 316000 nM.
For the compound `Cc1ccc(-n2cccc(C(C)(C)O)c2=O)cc1-n1c(C)cc(OCc2ncc(F)cc2F)c(Cl)c1=O` (single isomer, unassigned) [Example 2A, rel-3-chloro-4-[(3,5-difluoropyridin-2-yl)methoxy]-1-{5-[3-(2-hydroxypropan-2-yl)-2-oxopyridin-1-yl]-2-methylphenyl}-6-methylpyridin-2-one], the IC50 in assay [1] (setting [3]) is 3.98 nM; in assay [2], 1260 nM.
Turning to `Cc1ccc(-n2cccc(C(C)(C)O)c2=O)cc1-n1c(C)cc(OCc2ncc(F)cc2F)c(Cl)c1=O` (single isomer, unassigned) [Example 2B, rel-3-chloro-4-[(3,5-difluoropyridin-2-yl)methoxy]-1-{5-[3-(2-hydroxypropan-2-yl)-2-oxopyridin-1-yl]-2-methylphenyl}-6-methylpyridin-2-one], the IC50 was above 1000 nM in assay [1] (setting [3]) and above 316000 nM in assay [2].
In the case of `COCc1cc(OCc2ncc(F)cc2F)c(Cl)c(=O)n1-c1cc(-n2cccc(C(C)(C)O)c2=O)ncc1C` (single isomer, unassigned) [Example 3A, rel-3-chloro-4-[(3,5-difluoropyridin-2-yl)methoxy]-2′-[3-(2-hydroxypropan-2-yl)-2-oxopyridin-1-yl]-6-(methoxymethyl)-5′-methyl-[1,4′-bipyridin]-2-one], the IC50 in assay [1] (setting [3]) is 6.31 nM; in assay [2] it was 5010 nM.
Turning to `COCc1cc(OCc2ncc(F)cc2F)c(Cl)c(=O)n1-c1cc(-n2cccc(C(C)(C)O)c2=O)ncc1C` (single isomer, unassigned) [Example 3B, rel-3-chloro-4-[(3,5-difluoropyridin-2-yl)methoxy]-2′-[3-(2-hydroxypropan-2-yl)-2-oxopyridin-1-yl]-6-(methoxymethyl)-5′-methyl-[1,4′-bipyridin]-2-one], the IC50 in assay [1] (setting [3]) was above 1000 nM; in assay [2], above 316000 nM.
`Cc1cnc(-n2cccc(C(C)(C)O)c2=O)cc1-n1c(C)cc(OCc2ncc(Cl)cc2F)c(Cl)c1=O` (single isomer, unassigned) [Example 4A, rel-3-chloro-4-[(5-chloro-3-fluoropyridin-2-yl)methoxy]-2′-[3-(2-hydroxypropan-2-yl)-2-oxopyridin-1-yl]-5′,6-dimethyl-[1,4′-bipyridin]-2-one]: the values for the IC50 in assay [1] (setting [3]) and in assay [2] were 2 nM and 5010 nM, respectively.
`Cc1cnc(-n2cccc(C(C)(C)O)c2=O)cc1-n1c(C)cc(OCc2ncc(Cl)cc2F)c(Cl)c1=O` (single isomer, unassigned) [Example 4B, rel-3-chloro-4-[(5-chloro-3-fluoropyridin-2-yl)methoxy]-2′-[3-(2-hydroxypropan-2-yl)-2-oxopyridin-1-yl]-5′,6-dimethyl-[1,4′-bipyridin]-2-one]: the results for the IC50 in assay [1] (setting [3]) and in assay [2] were above 1000 nM and above 316000 nM, respectively.
Regarding `Cc1cnc(-n2ccnc(C(C)(C)O)c2=O)cc1-n1c(C)cc(OCc2ncc(F)cc2F)c(Cl)c1=O` (single isomer, unassigned) [Example 5A, rel-3-chloro-4-[(3,5-difluoropyridin-2-yl)methoxy]-2′-[3-(2-hydroxypropan-2-yl)-2-oxopyrazin-1-yl]-5′,6-dimethyl-[1,4′-bipyridin]-2-one], the IC50 in assay [1] (setting [3]) is 2.51 nM; in assay [2], 2510 nM.
Consider `Cc1cnc(-n2ccnc(C(C)(C)O)c2=O)cc1-n1c(C)cc(OCc2ncc(F)cc2F)c(Cl)c1=O` (single isomer, unassigned) [Example 5B, rel-3-chloro-4-[(3,5-difluoropyridin-2-yl)methoxy]-2′-[3-(2-hydroxypropan-2-yl)-2-oxopyrazin-1-yl]-5′,6-dimethyl-[1,4′-bipyridin]-2-one], for which the IC50 in assay [1] (setting [3]) is above 1000 nM; in assay [2], above 316000 nM.
Consider `Cc1cnc(-n2cccc(C(C)(C)O)c2=O)cc1-n1c(C)cc(OCc2ncc(F)cc2Cl)c(Cl)c1=O` (single isomer, unassigned) [Example 7A, rel-3-chloro-4-[(3-chloro-5-fluoropyridin-2-yl)methoxy]-2′-[3-(2-hydroxypropan-2-yl)-2-oxopyridin-1-yl]-5′,6-dimethyl-[1,4′-bipyridin]-2-one], for which the figures for the IC50 in assay [1] (setting [3]) and in assay [2] were 1 nM and 7940 nM, respectively.
For `Cc1cnc(-n2cccc(C(C)(C)O)c2=O)cc1-n1c(C)cc(OCc2ncc(F)cc2Cl)c(Cl)c1=O` (single isomer, unassigned) [Example 7B, rel-3-chloro-4-[(3-chloro-5-fluoropyridin-2-yl)methoxy]-2′-[3-(2-hydroxypropan-2-yl)-2-oxopyridin-1-yl]-5′,6-dimethyl-[1,4′-bipyridin]-2-one], the IC50 was above 1000 nM in assay [1] (setting [3]) and above 316000 nM in assay [2].
In the case of `Cc1cnc(-n2cccc(C3CCOCC3)c2=O)cc1-n1c(C)cc(OCc2ncc(F)cc2F)c(Cl)c1=O` (single isomer, unassigned) [Example 8A, rel-3-chloro-4-[(3,5-difluoropyridin-2-yl)methoxy]-5′,6-dimethyl-2′-[3-(oxan-4-yl)-2-oxopyridin-1-yl]-[1,4′-bipyridin]-2-one], the IC50 in assay [1] (setting [3]) is 0.794 nM; in assay [2] it was 2510 nM.
For `Cc1cnc(-n2cccc(C3CCOCC3)c2=O)cc1-n1c(C)cc(OCc2ncc(F)cc2F)c(Cl)c1=O` (single isomer, unassigned) [Example 8B, rel-3-chloro-4-[(3,5-difluoropyridin-2-yl)methoxy]-5′,6-dimethyl-2′-[3-(oxan-4-yl)-2-oxopyridin-1-yl]-[1,4′-bipyridin]-2-one], the values for the IC50 in assay [1] (setting [3]) and in assay [2] were above 1000 nM and above 316000 nM, respectively.
Take `Cc1cnc(-n2nccc(C(C)(C)O)c2=O)cc1-n1c(C)cc(OCc2ncc(F)cc2F)c(Cl)c1=O` (single isomer, unassigned) [Example 9A, rel-3-chloro-4-[(3,5-difluoropyridin-2-yl)methoxy]-2′-[5-(2-hydroxypropan-2-yl)-6-oxopyridazin-1-yl]-5′,6-dimethyl-[1,4′-bipyridin]-2-one]: the IC50 in assay [1] (setting [3]) was 12.6 nM; in assay [2], 2000 nM.
On to `Cc1cnc(-n2nccc(C(C)(C)O)c2=O)cc1-n1c(C)cc(OCc2ncc(F)cc2F)c(Cl)c1=O` (single isomer, unassigned) [Example 9B, rel-3-chloro-4-[(3,5-difluoropyridin-2-yl)methoxy]-2′-[5-(2-hydroxypropan-2-yl)-6-oxopyridazin-1-yl]-5′,6-dimethyl-[1,4′-bipyridin]-2-one], for which the results for the IC50 in assay [1] (setting [3]) and in assay [2] were above 1000 nM and above 316000 nM, respectively.
Turning to `Cc1cnc(-n2cc(C(C)(C)O)ccc2=O)cc1-n1c(C)cc(OCc2ncc(F)cc2F)c(Cl)c1=O` (single isomer, unassigned) [Example 13B, rel-3-chloro-4-[(3,5-difluoropyridin-2-yl)methoxy]-2′-[5-(2-hydroxypropan-2-yl)-2-oxopyridin-1-yl]-5′,6-dimethyl-[1,4′-bipyridin]-2-one], the IC50 in assay [2] is 15800 nM.
